Test results: US8048892B2, “Azaquinolone based compounds exhibiting prolyl hydroxylase inhibitory activity, compositions, and uses thereof” (Amgen Inc., priority 2006, dated 2011)

Molecular target: HIF PHD2 (Homo sapiens, UniProt Q9GZT9)
Test: PHD2 inhibition assay (TR-FRET, VCB-Eu detection of hydroxylated P564-HIF1α peptide)
Assay type: biochemical
Details: 2 nM PHD2, 100 nM P564-HIF1α peptide, 0.25 μM 2-oxoglutarate
Procedure: Inhibition of HIF PHD2 activity was quantified utilizing the TR-FRET technology. HIF PHD2 catalyzes a hydroxyl modification on the proline residue of the P564-HIF1α peptide substrate (Biotin-DLEMLAPYIPMDDDFQL (SEQ ID NO: 7)) resulting in recognition and binding of the europylated Von Hippel-Lindau protein (pVHL), elongin B and elongin C heterotrimeric (VCB-Eu) complex.
The PHD2 inhibition assay was executed by addition of freshly dissolved FeCl2 to 178.57 μM (100 μM final concentration) in PHD2 Reaction Buffer containing 30 mM MES, pH 6, 10 mM NaCl, 0.25% Brij-35, 0.01% BSA, and 1% DMSO. 28 μL of the iron solution and 2 μL of inhibitor compounds serially diluted in 100% DMSO (5% DMSO final) were added to black polypropylene 96-well microtiter plates. To that, 10 μL of 10 nM PHD2 (2 nM final) was added to all wells of the plate except for the 8 wells of column 12 (LO control), and allowed to incubate at room temperature on the shaker for one hour. Column 6 was the HI control containing PHD2 enzyme and 5% DMSO vehicle, but no inhibitor compound. To initiate the PHD2 enzymatic reaction, 10 μL of a solution containing 500 nM P564-HIF1α peptide (100 nM final), 10 mM ascorbic acid (2 mM final), and 1.25 μM 2-oxoglutarate (α-ketoglutarate; 0.25 μM final) in PHD2 Reaction Buffer was added to all wells of the plate and allowed to incubate on the shaker at room temperature for one hour.
The reaction was terminated by addition of 25 μL TR-FRET Buffer (50 mM TRIS-HCl, pH 9, 100 mM NaCl, 0.05% BSA, and 0.5% Tween-20) containing 150 mM succinate (product inhibitor; 50 mM final), 75 nM streptavidin-APC (25 nM final), and 7.5 nM VCB-Eu (2.5 nM final). The TR-FRET detection reagents were placed on a shaker for 1 hour to reach binding equilibrium before reading on the Discovery platform (PerkinElmer). Europium is excited at 315 nm and phosphoresces at 615 nm with a large Stoke's shift. APC, in turn, emits at 655 nm upon excitation at 615 nm. The TR-FRET signal is measured as the ratio of the APC 655 nm signal divided by the internal europium reference 615 nm emission signal.
The POC (percentage of control) was determined by comparing the signal from hydroxylated peptide substrate in the enzyme reaction containing inhibitor compound with that from PHD2 enzyme with DMSO vehicle alone (HI control), and no enzyme (LO control). POC was calculated using the formula: % control (POC)=(cpd−average LO)/(average HI−average LO)*100. Data (consisting of POC and inhibitor concentration in μM) was fitted to a 4-parameter equation (y=A+((B−A)/(1+((x/C)^D))), where A is the minimum y (POC) value, B is the maximum y (POC), C is the x (cpd concentration) at the point of inflection and D is the slope factor) using a Levenburg-Marquardt non-linear regression algorithm.

HIF PHD2, sequence (Q9GZT9 whole entry): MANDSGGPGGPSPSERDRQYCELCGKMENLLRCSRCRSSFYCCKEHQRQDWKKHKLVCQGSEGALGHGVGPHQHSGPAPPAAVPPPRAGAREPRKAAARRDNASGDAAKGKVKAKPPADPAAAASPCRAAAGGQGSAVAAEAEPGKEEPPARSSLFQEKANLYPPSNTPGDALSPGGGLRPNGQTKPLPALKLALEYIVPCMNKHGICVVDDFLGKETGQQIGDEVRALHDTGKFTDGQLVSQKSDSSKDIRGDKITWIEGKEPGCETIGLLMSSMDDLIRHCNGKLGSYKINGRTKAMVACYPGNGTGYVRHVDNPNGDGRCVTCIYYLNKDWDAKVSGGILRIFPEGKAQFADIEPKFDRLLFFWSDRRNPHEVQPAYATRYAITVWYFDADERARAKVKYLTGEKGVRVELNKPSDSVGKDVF

| Compound | IC50 |
| --- | --- |
| Cc1ccc(-c2ccc3c(O)c(C(=O)NCC(=O)O)c(=O)n(C)c3n2)cc1 [Example 15, N-((4-Hydroxy-1-methyl-7-(4-methylphenyl)-2-oxo-1,2-dihydro-1,8-naphthyridin-3-yl)carbonyl)glycine] | 100 to 500 nM |
| COc1ccc(-c2ccc3c(O)c(C(=O)NCC(=O)O)c(=O)n(C)c3n2)cc1 [Example 16, N-((4-Hydroxy-1-methyl-7-(4-(methyloxy)phenyl)-2-oxo-1,2-dihydro-1,8-naphthyridin-3-yl)carbonyl)glycine] | 50 to 100 nM |
| Cn1c(=O)c(C(=O)NCC(=O)O)c(O)c2ccc(-c3cccnc3)nc21 [Example 17, N-((4-Hydroxy-1-methyl-2-oxo-7-(3-pyridinyl)-1,2-dihydro-1,8-naphthyridin-3-yl)carbonyl)glycine] | < 50 nM |
| Cn1c(=O)c(C(=O)NCC(=O)O)c(O)c2ccc(C3CCCCC3)nc21 [Example 18, 2-(7-Cyclohexyl-4-hydroxy-1-methyl-2-oxo-1,2-dihydro-1,8-naphthyridine-3-carboxamido)acetic acid] | 100 to 500 nM |
| Cn1c(=O)c(C(=O)NCC(=O)O)c(O)c2ccc(C#C[Si](C)(C)C)nc21 [Example 19, 2-(4-Hydroxy-1-methyl-2-oxo-7-(2-(trimethylsilyl)ethynyl)-1,2-dihydro-1,8-naphthyridine-3-carboxamido)acetic acid] | 50 to 100 nM |
| C#Cc1ccc2c(O)c(C(=O)NCC(=O)O)c(=O)n(C)c2n1 [Example 20, 2-(7-Ethynyl-4-hydroxy-1-methyl-2-oxo-1,2-dihydro-1,8-naphthyridine-3-carboxamido)acetic acid] | < 50 nM |
| Cn1c(=O)c(C(=O)NCC(=O)O)c(O)c2ccc(C#CC3CC3)nc21 [Example 21, 2-(7-(2-Cyclopropylethynyl)-4-hydroxy-1-methyl-2-oxo-1,2-dihydro-1,8-naphthyridine-3-carboxamido)acetic acid] | < 50 nM |
| Cn1c(=O)c(C(=O)NCC(=O)O)c(O)c2ccc(N3CCCCC3)nc21 [Example 22, 2-(4-Hydroxy-1-methyl-2-oxo-7-(piperidin-1-yl)-1,2-dihydro-1,8-naphthyridine-3-carboxamido)acetic acid] | 50 to 100 nM |
| Cn1c(=O)c(C(=O)NCC(=O)O)c(O)c2ccc(N3CCOCC3)nc21 [Example 23, 2-(4-Hydroxy-1-methyl-7-morpholino-2-oxo-1,2-dihydro-1,8-naphthyridine-3-carboxamido)acetic acid] | 100 to 500 nM |
| Cn1c(=O)c(C(=O)NCC(=O)O)c(O)c2ccc(N3CCC(C(F)(F)F)CC3)nc21 [Example 24, 2-(4-Hydroxy-1-methyl-2-oxo-7-(4-(trifluoromethyl)piperidin-1-yl)-1,2-dihydro-1,8-naphthyridine-3-carboxamido)acetic acid] | 500 to 1000 nM |
| COc1ccc2c(O)c(C(=O)NCC(=O)O)c(=O)n(C)c2n1 [Example 25, 2-(4-Hydroxy-7-methoxy-1-methyl-2-oxo-1,2-dihydro-1,8-naphthyridine-3-carboxamido)acetic acid] | < 50 nM |
| Cn1c(=O)c(C(=O)NCC(=O)O)c(O)c2cc(C3=CCOCC3)cnc21 [Example 26, 2-(6-(3,6-Dihydro-2 H-pyran-4-yl)-4-hydroxy-1-methyl-2-oxo-1,2-dihydro-1,8-naphthyridine-3-carboxamido)acetic acid] | 50 to 100 nM |
| Cc1ccnc(-c2cnc3c(c2)c(O)c(C(=O)NCC(=O)O)c(=O)n3C)n1 [Example 27, 2-(4-Hydroxy-1-methyl-6-(4-methylpyrimidin-2-yl)-2-oxo-1,2-dihydro-1,8-naphthyridine-3-carboxamido)acetic acid] | < 50 nM |
| Cn1c(=O)c(C(=O)NCC(=O)O)c(O)c2cc(-c3nccc(C(F)(F)F)n3)cnc21 [Example 28] | < 50 nM |
| COc1ccnc(-c2cnc3c(c2)c(O)c(C(=O)NCC(=O)O)c(=O)n3C)n1 [Example 29, 2-(4-Hydroxy-6-(4-methoxypyrimidin-2-yl)-1-methyl-2-oxo-1,2-dihydro-1,8-naphthyridine-3-carboxamido)acetic acid] | < 50 nM |
| Cc1cc(C)nc(-c2cnc3c(c2)c(O)c(C(=O)NCC(=O)O)c(=O)n3C)n1 [Example 30, 2-(6-(4,6-Dimethylpyrimidin-2-yl)-4-hydroxy-1-methyl-2-oxo-1,2-dihydro-1,8-naphthyridine-3-carboxamido)acetic acid] | 50 to 100 nM |
| Cn1c(=O)c(C(=O)NCC(=O)O)c(O)c2cc(-c3cc(Cl)ncn3)cnc21 [Example 31, 2-(6-(6-Chloropyrimidin-4-yl)-4-hydroxy-1-methyl-2-oxo-1,2-dihydro-1,8-naphthyridine-3-carboxamido)acetic acid] | < 50 nM |
| Cn1c(=O)c(C(=O)NCC(=O)O)c(O)c2cc(-c3cccc(C(F)(F)F)n3)cnc21 [Example 32, N-((4-Hydroxy-1-methyl-2-oxo-6-(6-(trifluoromethyl)-2-pyridinyl)-1,2-dihydro-1,8-naphthyridin-3-yl)carbonyl)glycine] | 50 to 100 nM |
| CN(C)c1ccccc1-c1cnc2c(c1)c(O)c(C(=O)NCC(=O)O)c(=O)n2C [Example 33, 2-(6-(2-(Dimethylamino)phenyl)-4-hydroxy-1-methyl-2-oxo-1,2-dihydro-1,8-naphthyridine-3-carboxamido)acetic acid] | 50 to 100 nM |
| Cn1c(=O)c(C(=O)NCC(=O)O)c(O)c2cc(C3CCOCC3)cnc21 [Example 34, 2-(4-Hydroxy-1-methyl-2-oxo-6-(tetrahydro-2 H-pyran-4-yl)-1,2-dihydro-1,8-naphthyridine-3-carboxamido)acetic acid] | < 50 nM |
| Cc1ccccc1-c1cnc2c(c1)c(O)c(C(=O)NCC(=O)O)c(=O)n2C [Example 35, N-((4-Hydroxy-1-methyl-6-(2-methylphenyl)-2-oxo-1,2-dihydro-1,8-naphthyridin-3-yl)carbonyl)glycine] | 50 to 100 nM |
| CC(C)Oc1ccccc1-c1cnc2c(c1)c(O)c(C(=O)NCC(=O)O)c(=O)n2C [Example 36, N-((4-Hydroxy-1-methyl-6-(2-((1-methylethyl)oxy)phenyl)-2-oxo-1,2-dihydro-1,8-naphthyridin-3-yl)carbonyl)glycine] | 100 to 500 nM |
| CC(C)Oc1ccc(-c2cnc3c(c2)c(O)c(C(=O)NCC(=O)O)c(=O)n3C)cc1 [Example 37, N-((4-Hydroxy-1-methyl-6-(4-((1-methylethyl)oxy)phenyl)-2-oxo-1,2-dihydro-1,8-naphthyridin-3-yl)carbonyl)glycine] | 100 to 500 nM |
| CC(C)Oc1cccc(-c2cnc3c(c2)c(O)c(C(=O)NCC(=O)O)c(=O)n3C)c1 [Example 38, N-((4-Hydroxy-1-methyl-6-(3-((1-methylethyl)oxy)phenyl)-2-oxo-1,2-dihydro-1,8-naphthyridin-3-yl)carbonyl)glycine] | 100 to 500 nM |
| Cn1c(=O)c(C(=O)NCC(=O)O)c(O)c2cc(-c3ccc4c(c3)CCO4)cnc21 [Example 39, N-((6-(2,3-Dihydro-1-benzofuran-5-yl)-4-hydroxy-1-methyl-2-oxo-1,2-dihydro-1,8-naphthyridin-3-yl)carbonyl)glycine] | 50 to 100 nM |
| Cc1cccc(C)c1-c1cnc2c(c1)c(O)c(C(=O)NCC(=O)O)c(=O)n2C [Example 40, N-((6-(2,6-Dimethylphenyl)-4-hydroxy-1-methyl-2-oxo-1,2-dihydro-1,8-naphthyridin-3-yl)carbonyl)glycine] | 100 to 500 nM |
| Cn1c(=O)c(C(=O)NCC(=O)O)c(O)c2cc(-c3ccccc3C(N)=O)cnc21 [Example 41, N-((6-(2-(Aminocarbonyl)phenyl)-4-hydroxy-1-methyl-2-oxo-1,2-dihydro-1,8-naphthyridin-3-yl)carbonyl)glycine] | 50 to 100 nM |
| Cn1c(=O)c(C(=O)NCC(=O)O)c(O)c2cc(-c3ccccc3C(F)(F)F)cnc21 [Example 42, N-((4-Hydroxy-1-methyl-2-oxo-6-(2-(trifluoromethyl)phenyl)-1,2-dihydro-1,8-naphthrydin-3-yl)carbonyl)glycine] | 50 to 100 nM |
| Cn1c(=O)c(C(=O)NCC(=O)O)c(O)c2cc(-c3ccncc3)cnc21 [Example 43, 2-(4-Hydroxy-1-methyl-2-oxo-6-(pyridin-4-yl)-1,2-dihydro-1,8-naphthyridine-3-carboxamido)acetic acid] | 100 to 500 nM |
